Assay results from publication PMC12307812 (Nature Communications, 2025).

Columns and labels:
[1] = biological target: T1, Recombinant Human TMPRSS2 (Homo sapiens, UniProt O15393); assay: TMPRSS2 biochemical assay (Boc-Gln-Ala-Arg-AMC fluorogenic substrate)
T1 construct: human TMPRSS2 residues 106492, N-terminal 6x His-tag; 6x His-tag (N); purchased Cusabio CSB-YP023924HU; host or cells: yeast
Protocol: Inhibitors of TMPRSS2 were tested using a high throughput activity assay. […] TMPRSS2 (5 µl, 0.018 mg/ml) in assay buffer (50 mM Tris pH 8, 150 mM NaCl, 0.01% Tween20) was dispensed to that, using a BioRAPTR (Beckman Coulter), for a total assay volume of 5 µl.
(§1) After incubation at room temperature for 1 h, fluorescence was measured. […] Raw plate reads for each titration point were normalized relative to a positive control containing no enzyme (0% activity, full inhibition) and a negative control containing DMSO-only wells (100% activity, basal activity). Data normalization was performed using GraphPad Prism (GraphPad Software, San Diego, CA).
(§2) We employed the curve fitting algorithm available in the SciPy package (version 1.10.1)[61] to derive the Hill slope and the IC50 value, along with their corresponding error estimates.

[2] = biological target: T1, Recombinant Human TMPRSS2; assay: TMPRSS2 biochemical assay with pre-incubation of inhibitor and enzyme; settings: for inhibition at 2.788 pM: concentration 0.00278767 nM; for inhibition at 8.363 pM: concentration 0.00836301 nM; for inhibition at 25.09 pM: concentration 0.025089 nM; for inhibition at 75.27 pM: concentration 0.0752671 nM; for inhibition at 0.000225801 µM: concentration 0.225801 nM; for inhibition at 0.000677404 µM: concentration 0.677404 nM; for inhibition at 0.00203221 µM: concentration 2.03221 nM; for inhibition at 0.00609663 µM: concentration 6.09663 nM; for inhibition at 0.0182899 µM: concentration 18.2899 nM; for inhibition at 0.0548697 µM: concentration 54.8697 nM; for inhibition at 0.164609 µM: concentration 164.609 nM; for inhibition at 0.493827 µM: concentration 493.827 nM; for inhibition at 1.48148 µM: concentration 1481.48 nM; for inhibition at 4.44444 µM: concentration 4444.44 nM; for inhibition at 13.3333 µM: concentration 13333.3 nM; for inhibition at 40 µM: concentration 40000 nM
Protocol: To that was dispensed TMPRSS2 (5 µl, 0.018 mg/ml) in assay buffer (50 mM Tris pH 8, 150 mM NaCl, 0.01% Tween20) using a BioRAPTR (Beckman Coulter) to give a total reaction volume of 5 µl. […] The final assay conditions are 10 µM peptide, 0.018 mg/ml TMPRSS2 in assay buffer (50 mM Tris-HCl, pH 8, 150 mM NaCl, 0.01% Tween20).
as §1, §2
To model the relationship between the pre-incubation time and the IC50, we use the following equation inspired by the Morse potential:3 ft,a,D,te=D⋅1−exp−a⋅t−te^2 where t is the time, a is the width of the well, D is the IC50 at infinite time (depth of the well) and te is the time at which the IC50 reaches its minimum. Again, we made use of SciPy’s curve fitting method to obtain parameters a, D and te, with their respective error estimates.

T1 sequence (O15393 106-492 limits assumed): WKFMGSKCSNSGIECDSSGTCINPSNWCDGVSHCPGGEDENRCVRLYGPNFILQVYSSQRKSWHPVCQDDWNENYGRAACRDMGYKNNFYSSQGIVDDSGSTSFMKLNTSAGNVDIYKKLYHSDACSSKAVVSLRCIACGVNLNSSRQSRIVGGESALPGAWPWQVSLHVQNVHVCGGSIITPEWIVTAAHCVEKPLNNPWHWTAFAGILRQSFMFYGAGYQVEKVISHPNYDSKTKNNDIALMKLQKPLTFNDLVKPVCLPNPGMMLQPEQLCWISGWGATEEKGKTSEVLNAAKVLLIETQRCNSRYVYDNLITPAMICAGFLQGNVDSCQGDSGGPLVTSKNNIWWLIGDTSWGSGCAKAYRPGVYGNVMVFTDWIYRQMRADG

In the case of CC(C)(C)NC(=O)N1CCN(C(=O)N2C(=O)C(CCCNC(=N)N)C2C(=O)O)CC1 (stereo not shown) [BMS-262084], the inhibition at 75.27 pM ([1]; concentration 0.0752671 nM) is reported as 1.73%, the inhibition at 0.000225801 µM ([1]; concentration 0.225801 nM) is reported as 16.6% and the inhibition at 0.000677404 µM ([1]; concentration 0.677404 nM) is reported as 22.3%. It also gave an inhibition at 0.00203221 µM ([1]; concentration 2.03221 nM) of 54.4%, an inhibition at 0.00609663 µM ([1]; concentration 6.09663 nM) of 77.8% and an inhibition at 0.0182899 µM ([1]; concentration 18.2899 nM) of 91.4%. The inhibition at 0.0548697 µM ([1]; concentration 54.8697 nM) was 94.8%, the inhibition at 0.164609 µM ([1]; concentration 164.609 nM) was 99.3% and the inhibition at 0.493827 µM ([1]; concentration 493.827 nM) was 97.2%. The inhibition at 1.48148 µM ([1]; concentration 1481.48 nM) was 99%, the inhibition at 4.44444 µM ([1]; concentration 4444.44 nM) was 98% and the inhibition at 13.3333 µM ([1]; concentration 13333.3 nM) was 98.8%. For the same compound, the inhibition at 40 µM ([1]; concentration 40000 nM) was 93.2%, the IC50 ([1]; read-out: IC50, inhibition in TMPRSS2 biochemical assay) was 1.82 nM and the “fold IC50 relative to camostat and nafamostat” value ([2]; after 48 h of pre-incubation) was 5 fold. For the same compound, the inhibition at 2.788 pM ([2]; pre-incubation 0) was -15.1%, the inhibition at 8.363 pM ([2]; pre-incubation 0) was -14.4% and the inhibition at 25.09 pM ([2]; pre-incubation 0) was -2.55%. For the same compound, the inhibition at 75.27 pM ([2]; pre-incubation 0) was 9.07%, the inhibition at 0.000225801 µM ([2]; pre-incubation 0) was 39.6% and the inhibition at 0.000677404 µM ([2]; pre-incubation 0) was 61.8%. For the same compound, the inhibition at 0.00203221 µM ([2]; pre-incubation 0) was 83.9%, the inhibition at 0.00609663 µM ([2]; pre-incubation 0) was 90.2% and the inhibition at 0.0182899 µM ([2]; pre-incubation 0) was 93.8%. The inhibition at 0.0548697 µM ([2]; pre-incubation 0) was 94.7%, the inhibition at 0.164609 µM ([2]; pre-incubation 0) was 96.7% and the inhibition at 0.493827 µM ([2]; pre-incubation 0) was 97.7%. For the same compound, the inhibition at 1.48148 µM ([2]; pre-incubation 0) was 98.2%, the inhibition at 4.44444 µM ([2]; pre-incubation 0) was 98% and the inhibition at 13.3333 µM ([2]; pre-incubation 0) was 101%. The inhibition at 40 µM ([2]; pre-incubation 0) was 100%, the inhibition at 2.788 pM ([2]; pre-incubation 1) was 9.6% and the inhibition at 8.363 pM ([2]; pre-incubation 1) was 9.83%. The inhibition at 25.09 pM ([2]; pre-incubation 1) was 32.2%, the inhibition at 75.27 pM ([2]; pre-incubation 1) was 60.8% and the inhibition at 0.000225801 µM ([2]; pre-incubation 1) was 90%. For the same compound, the inhibition at 0.000677404 µM ([2]; pre-incubation 1) was 96.9%, the inhibition at 0.00203221 µM ([2]; pre-incubation 1) was 97.1% and the inhibition at 0.00609663 µM ([2]; pre-incubation 1) was 97.8%. It also gave an inhibition at 0.0182899 µM ([2]; pre-incubation 1) of 97.1%, an inhibition at 0.0548697 µM ([2]; pre-incubation 1) of 97.8% and an inhibition at 0.164609 µM ([2]; pre-incubation 1) of 97.6%. It also gave an inhibition at 0.493827 µM ([2]; pre-incubation 1) of 98.2%, an inhibition at 1.48148 µM ([2]; pre-incubation 1) of 99.5% and an inhibition at 4.44444 µM ([2]; pre-incubation 1) of 100%. For the same compound, the inhibition at 13.3333 µM ([2]; pre-incubation 1) was 101%, the inhibition at 40 µM ([2]; pre-incubation 1) was 102% and the inhibition at 2.788 pM ([2]; pre-incubation 4) was 5.94%. It also gave an inhibition at 8.363 pM ([2]; pre-incubation 4) of 11.2%, an inhibition at 25.09 pM ([2]; pre-incubation 4) of 52.1% and an inhibition at 75.27 pM ([2]; pre-incubation 4) of 87.4%. It also gave an inhibition at 0.000225801 µM ([2]; pre-incubation 4) of 99.5%, an inhibition at 0.000677404 µM ([2]; pre-incubation 4) of 99.4% and an inhibition at 0.00203221 µM ([2]; pre-incubation 4) of 99.5%. For the same compound, the inhibition at 0.00609663 µM ([2]; pre-incubation 4) was 99.5%, the inhibition at 0.0182899 µM ([2]; pre-incubation 4) was 99.8% and the inhibition at 0.0548697 µM ([2]; pre-incubation 4) was 99.8%. It also gave an inhibition at 0.164609 µM ([2]; pre-incubation 4) of 100%, an inhibition at 0.493827 µM ([2]; pre-incubation 4) of 100% and an inhibition at 1.48148 µM ([2]; pre-incubation 4) of 101%. It also gave an inhibition at 4.44444 µM ([2]; pre-incubation 4) of 101%, an inhibition at 13.3333 µM ([2]; pre-incubation 4) of 103% and an inhibition at 40 µM ([2]; pre-incubation 4) of 102%. For the same compound, the inhibition at 2.788 pM ([2]; pre-incubation 8) was 25.7%, the inhibition at 8.363 pM ([2]; pre-incubation 8) was 29.7% and the inhibition at 25.09 pM ([2]; pre-incubation 8) was 84.9%. It also gave an inhibition at 75.27 pM ([2]; pre-incubation 8) of 109%, an inhibition at 0.000225801 µM ([2]; pre-incubation 8) of 113% and an inhibition at 0.000677404 µM ([2]; pre-incubation 8) of 114%. It also gave an inhibition at 0.00203221 µM ([2]; pre-incubation 8) of 114%, an inhibition at 0.00609663 µM ([2]; pre-incubation 8) of 116% and an inhibition at 0.0182899 µM ([2]; pre-incubation 8) of 115%. It also gave an inhibition at 0.0548697 µM ([2]; pre-incubation 8) of 116%, an inhibition at 0.164609 µM ([2]; pre-incubation 8) of 116% and an inhibition at 0.493827 µM ([2]; pre-incubation 8) of 116%. The inhibition at 1.48148 µM ([2]; pre-incubation 8) was 118%, the inhibition at 4.44444 µM ([2]; pre-incubation 8) was 119% and the inhibition at 13.3333 µM ([2]; pre-incubation 8) was 118%. The inhibition at 40 µM ([2]; pre-incubation 8) was 118%, the inhibition at 2.788 pM ([2]; pre-incubation 18) was 20.8% and the inhibition at 8.363 pM ([2]; pre-incubation 18) was 24.6%. It also gave an inhibition at 25.09 pM ([2]; pre-incubation 18) of 83.1%, an inhibition at 75.27 pM ([2]; pre-incubation 18) of 92.8% and an inhibition at 0.000225801 µM ([2]; pre-incubation 18) of 95.2%. The inhibition at 0.000677404 µM ([2]; pre-incubation 18) was 95.6%, the inhibition at 0.00203221 µM ([2]; pre-incubation 18) was 98.1% and the inhibition at 0.00609663 µM ([2]; pre-incubation 18) was 98.2%. The inhibition at 0.0182899 µM ([2]; pre-incubation 18) was 99.5%, the inhibition at 0.0548697 µM ([2]; pre-incubation 18) was 101% and the inhibition at 0.164609 µM ([2]; pre-incubation 18) was 102%. For the same compound, the inhibition at 0.493827 µM ([2]; pre-incubation 18) was 103%, the inhibition at 1.48148 µM ([2]; pre-incubation 18) was 102% and the inhibition at 4.44444 µM ([2]; pre-incubation 18) was 103%. For the same compound, the inhibition at 13.3333 µM ([2]; pre-incubation 18) was 104%, the inhibition at 40 µM ([2]; pre-incubation 18) was 105% and the inhibition at 2.788 pM ([2]; pre-incubation 24) was 45.1%. For the same compound, the inhibition at 8.363 pM ([2]; pre-incubation 24) was 50.8%, the inhibition at 25.09 pM ([2]; pre-incubation 24) was 105% and the inhibition at 75.27 pM ([2]; pre-incubation 24) was 110%. For the same compound, the inhibition at 0.000225801 µM ([2]; pre-incubation 24) was 114%, the inhibition at 0.000677404 µM ([2]; pre-incubation 24) was 114% and the inhibition at 0.00203221 µM ([2]; pre-incubation 24) was 114%. For the same compound, the inhibition at 0.00609663 µM ([2]; pre-incubation 24) was 115%, the inhibition at 0.0182899 µM ([2]; pre-incubation 24) was 116% and the inhibition at 0.0548697 µM ([2]; pre-incubation 24) was 115%. It also gave an inhibition at 0.164609 µM ([2]; pre-incubation 24) of 116%, an inhibition at 0.493827 µM ([2]; pre-incubation 24) of 116% and an inhibition at 1.48148 µM ([2]; pre-incubation 24) of 117%. The inhibition at 4.44444 µM ([2]; pre-incubation 24) was 117%, the inhibition at 13.3333 µM ([2]; pre-incubation 24) was 117% and the inhibition at 40 µM ([2]; pre-incubation 24) was 117%. It also gave an inhibition at 2.788 pM ([2]; pre-incubation 48) of 32.3%, an inhibition at 8.363 pM ([2]; pre-incubation 48) of 30.9% and an inhibition at 25.09 pM ([2]; pre-incubation 48) of 88.5%. For the same compound, the inhibition at 75.27 pM ([2]; pre-incubation 48) was 93.1%, the inhibition at 0.000225801 µM ([2]; pre-incubation 48) was 95.9% and the inhibition at 0.000677404 µM ([2]; pre-incubation 48) was 96.1%. The inhibition at 0.00203221 µM ([2]; pre-incubation 48) was 94.8%, the inhibition at 0.00609663 µM ([2]; pre-incubation 48) was 94.5% and the inhibition at 0.0182899 µM ([2]; pre-incubation 48) was 96.1%. For the same compound, the inhibition at 0.0548697 µM ([2]; pre-incubation 48) was 96.3%, the inhibition at 0.164609 µM ([2]; pre-incubation 48) was 97.7% and the inhibition at 0.493827 µM ([2]; pre-incubation 48) was 99.7%. For the same compound, the inhibition at 1.48148 µM ([2]; pre-incubation 48) was 101%, the inhibition at 4.44444 µM ([2]; pre-incubation 48) was 105% and the inhibition at 13.3333 µM ([2]; pre-incubation 48) was 109%. It also gave an inhibition at 40 µM ([2]; pre-incubation 48) of 112%.
